# Assay results reported in article PMC7083565, “In vitro metabolism, reaction phenotyping, enzyme kinetics, CYP inhibition and induction potential of ataluren” (Pharmacology Research & Perspectives, 2020).
# Tests used:
# [1] = test system: CYP2E1; test: CYP induction in primary human hepatocytes: CYP2E1; type: in vitro ADME; settings: male, 48 h, 4 µM
# Procedure: (§1) Human hepatocytes isolated from three Caucasian males were transferred to 48‐well collagen‐coated plates at 0.14 × 10^6 cells/well in planting media for attachment. After attachment, planting media was replaced with sandwich media and the cells were incubated until clusters were established. […] The incubation solutions were aspirated and replaced with freshly prepared incubation solutions containing ataluren for an additional 24 hours. […] The incubation solutions were then aspirated and 150 µL of K‐H buffer containing CYP substrates were added. […] Metabolite formation in incubations with test compounds and control inhibitors was assessed with validated LC‐MS/MS methods for each of the reaction products as described in Table S2. Enzymatic activity for each CYP was calculated using the absolute amount of metabolite formed (pmol) divided by hepatocytes in the incubation (million cells) and the incubation time (minute). The relative fold induction in enzymatic activity was calculated by comparing the rate of metabolite formation for treatment groups to that of the solvent control group (reported as vehicle control%) or positive control group (reported as positive control%).
# [2] = Plasma protein binding (ultrafiltration), monkey; type: in vitro ADME; settings: male, cynomolgus, 50 to 50 000 ng/mL, mean ± SD, n = 3, read-out: percentage protein binding (converted)
# Procedure: [^14C]‐Ataluren, at 50, 500, 5000, and 50 000 ng/mL or 0.175, 1.75, 17.5, and 175 µM, in male mouse, rat, dog, monkey, and human plasma, was incubated (n = 3) at 37°C for approximately 15 minutes, transferred into Centrifree® Micropartition Units (30 000 Da molecular weight cutoff, 1 mL capacity; Amicon Inc), and centrifuged at 37°C and 2000 g for approximately 10 minutes so that the amount of the sample filtered was approximately ≤ 20% of the total volume. After centrifugation, the entire ultrafiltrate was weighed and analyzed for radioactivity using liquid scintillation counting. The percent bound = (1‐Cu/Cm)×100, where Cu is the concentration of radioactivity in the ultrafiltrate and Cm is the concentration of radioactivity in the plasma before centrifugation.
# [3] = test system: CYP3A4/5; test: CYP induction in primary human hepatocytes: CYP3A4/5; type: in vitro ADME; settings: Testosterone 6β-hydroxylase, 48 hours, n=3
# Procedure: Human hepatocytes isolated from three Caucasian males were transferred to 48‐well collagen‐coated plates at 0.14 × 10^6 cells/well in planting media for attachment. After attachment, planting media was replaced with sandwich media and the cells were incubated until clusters were established. […] The incubation solutions were aspirated and replaced with freshly prepared incubation solutions containing ataluren for an additional 24 hours. […] The incubation solutions were then aspirated and 150 µL of K‐H buffer containing CYP substrates were added. The hepatocytes were incubated for 30 minutes for CYP2C8 (10 µmol/L amodiaquine), 1 hour for CYP3A4 (125 µmol/L testosterone), and 4 hours for CYPs 1A2 (100 µmol/L phenacetin), 2A6 (100 µmol/L coumarin), 2B6 (150 µmol/L bupropion), 2C9 (50 µmol/L tolbutamide), 2C19 (100 µmol/L S‐mephenytoin), and 2E1 (300 µmol/L chlorzoxazone) activity assays. The reactions were stopped by the addition of 0.15 mL of ice‐cold methanol except that coumarin‐treated cells were incubated with β‐glucuronidase and aryl sulfatase for additional 1 hour to free 7‐hydroxycoumarin before the addition of 0.2 mL of ice‐cold methanol. Metabolite formation in incubations with test compounds and control inhibitors was assessed with validated LC‐MS/MS methods for each of the reaction products as described in Table S2. Enzymatic activity for each CYP was calculated using the absolute amount of metabolite formed (pmol) divided by hepatocytes in the incubation (million cells) and the incubation time (minute). The relative fold induction in enzymatic activity was calculated by comparing the rate of metabolite formation for treatment groups to that of the solvent control group (reported as vehicle control%) or positive control group (reported as positive control%).
# [4] = Free fraction in human liver microsomes (internal data); type: in vitro ADME; settings: between 1 and 200 µmol/L, 0.1 mg/mL protein concentration
# [5] = test system: CYP2C19; test: CYP induction in primary human hepatocytes: CYP2C19; type: in vitro ADME; settings: male, 48 h
# Procedure: as §1
# [6] = Metabolism of [14C]-ataluren in pooled human liver microsomes with cofactors; type: in vitro ADME
# Procedure: [^14C]‐Ataluren at 1, 10, and 100 μmol/L was incubated (n = 3) with pooled HLM (1 mg protein/mL) at 37 ± 1°C in 0.2 mL incubation mixtures (final volume) containing potassium phosphate buffer (50 mmol/L, pH 7.4), MgCl2 (3 mmol/L), and EDTA (1 mmol/L) with and without cofactors, NADPH‐generating system (1 mmol/L NADP, 5 mmol/L glucose‐6‐phosphate, and 1 unit/mL glucose‐6‐phosphate dehydrogenase), and uridine diphosphate glucuronic acid (UDPGA, 8 mmol/L). [^14C]‐Ataluren was added in DMSO (final percent of 0.1% v/v). Reactions were started by the addition of the cofactors and terminated by the addition of stop reagent (0.2 mL of 2% v/v formic acid/acetonitrile) at 0, 60, and 120 minutes. Precipitated protein was removed by centrifugation (920 g for 10 minutes at 10°C). The supernatant fractions were analyzed by LC/RAM/MS to determine percent loss of substrate in incubations. Detailed LC/MS conditions are summarized in LC‐MS/MS Analysis section. After chromatographic separation, the detected radioactive peaks were integrated, and their identity was confirmed using mass spectrometry analysis. [^14C]‐ataluren remaining at specific timepoint after incubation was compared with the amount of [^14C]‐ataluren at 0 minutes incubation sample in the same matrix (eg, with or without cofactors etc) to calculate the percentage of ataluren remaining. The percentage of [^14C]‐ataluren acyl glucuronide formation at specific timepoint after incubation was calculated using the amount of metabolite formed over the total radioactivity in each sample.
# [^14C]‐Ataluren and metabolites were monitored by LC/RAM/MS system, which consisted of two Shimadzu LC‐10ATvp pumps (Shimadzu Scientific Instruments, Columbia, MD, USA), a Shimadzu SIL‐5000 autosampler, an IN/US Systems β‐RAM radiometric detector (LabLogic), and a Sciex API 4000 QTRAP triple quadrupole mass spectrometer (Sciex) equipped with a Turbo Ionspray ionization source operated in negative ionization mode. The Ionspray voltage was set at 4.5 kV with the source temperature at 450 °C. MS/MS was carried out with nitrogen as the collision gas. The column used was a Phenomenex Luna C8, 3 μm, 150 × 3.0 mm column (Phenomenex, Torrance, CA, USA). Mobile phase A consisted of 0.2% formic acid in water and mobile phase B consisted of 0.2% formic acid in acetonitrile. The flow rate was 0.50 mL/min with gradient program as follows: hold isocratic at 5% B for 2 minutes; linear gradient from 5% B to 60% B in 20 minutes; linear gradient from 60% B to 95% B in 5 minutes and hold isocratic at 95% B for 2 minutes; linear gradient from 95% B to 5% B in 0.5 minutes and hold isocratic at […] for 3.5 minutes.
# [7] = test system: CYP1A2; test: CYP induction in primary human hepatocytes: CYP1A2; settings: Phenacetin O-deethylase, 48 hours, n=3
smiles,measurement,setting,value
"O=C(O)c1cccc(-c2noc(-c3ccccc3F)n2)c1 [ataluren, Ataluren]","Vehicle control %, Mean",[1],99.0%
same,fraction unbound at 15 min,[2],0.003
same,"Positive control %, Mean",[3]; ataluren 4 µM,0.594%
same,"Vehicle control %, Mean",[3]; ataluren 4 µM,103%
same,"Positive control %, Mean",[3]; ataluren 40 µM,1.52%
same,"Vehicle control %, Mean",[3]; ataluren 40 µM,105%
same,"Positive control %, Mean",[3]; ataluren 400 µM,3.72%
same,"Vehicle control %, Mean",[3]; ataluren 400 µM,109%
same,Free fractions of ataluren in human liver microsomes,[4],close to unity
same,"Vehicle control %, Mean",[5]; 4 µM,112%
same,"Vehicle control %, Mean",[5]; 400 µM,99.0%
same,ataluren loss,"[6]; NADPH fortified HLM, 1, 10 and 100 µmol/L, up to 120 minutes",no ataluren loss was observed
same,ataluren loss,"[6]; UDPGA fortified HLM, 1 µmol/L, 120 minutes, n = 3",32%
same,ataluren loss,"[6]; UDPGA fortified HLM, 10 µmol/L, 120 minutes, n = 3",31%
same,ataluren loss,"[6]; UDPGA fortified HLM, 100 µmol/L, 120 minutes, n = 3",18%
same,"Positive control %, Mean",[7]; ataluren 4 µM,1.32%
same,"Positive control %, Mean",[7]; ataluren 40 µM,1.24%
same,"Vehicle control %, Mean",[7]; ataluren 40 µM,116%
same,"Positive control %, Mean",[7]; ataluren 400 µM,0.087%
same,"Vehicle control %, Mean",[7]; ataluren 400 µM,100%
